Measured values from PubChem BioAssay (NCI).
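Method: 48-hour compound exposure of cells in 96-well plates, five concentrations, linear interpolation of endpoints. TGI is the concentration that stops growth completely.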

Key:
Experiment in all cases: NCI anticancer screen, dose series, 48 h
[1] = tested on: SNB-19 CNS
[2] = tested on: UACC-257 melanoma
[3] = tested on: OVCAR-5 ovarian
[4] = tested on: HOP-18 NSCLC
[5] = tested on: EKVX NSCLC
[6] = tested on: SK-MEL-28 melanoma
[7] = tested on: XF 498 CNS
[8] = tested on: RXF 393 renal
[9] = tested on: M19-MEL melanoma
[10] = tested on: KM12 colon
[11] = tested on: M14 melanoma
[12] = tested on: MOLT-4 leukemia
[13] = tested on: K-562 leukemia
[14] = tested on: SF-295 CNS
[15] = tested on: RPMI-8226 leukemia
[16] = tested on: SK-OV-3 ovarian
[17] = tested on: ACHN renal
[18] = tested on: HT29 colon
[19] = tested on: SF-268 CNS
[20] = tested on: LOX IMVI melanoma
[21] = tested on: SN12C renal
[22] = tested on: COLO 205 colon
[23] = tested on: IGROV1 ovarian
[24] = tested on: DMS 114 small cell lung
[25] = tested on: U251 CNS
[26] = tested on: SK-MEL-2 melanoma
[27] = tested on: UO-31 renal
[28] = tested on: OVCAR-8 ovarian
[29] = tested on: OVCAR-4 ovarian
[30] = tested on: TK-10 renal
[31] = tested on: NCI-H23 lung
[32] = tested on: SK-MEL-5 melanoma
[33] = tested on: RXF-631 renal
[34] = tested on: NCI-H460 lung
[35] = tested on: SF-539 CNS
[36] = tested on: 786-0 renal
[37] = tested on: DLD-1 colon
[38] = tested on: SW-620 colon
[39] = tested on: NCI-H226 lung
[40] = tested on: SNB-75 CNS
[41] = tested on: HCT-15 colon
[42] = tested on: DMS 273 small cell lung
[43] = tested on: HCC-2998 colon
[44] = tested on: HOP-62 NSCLC
[45] = tested on: UACC-62 melanoma
[46] = tested on: LXFL 529 NSCLC
[47] = tested on: KM20L2 colon
[48] = tested on: MALME-3M melanoma
[49] = tested on: A549 NSCLC
[50] = tested on: NCI-H522 lung
[51] = tested on: HL-60(TB) leukemia
[52] = tested on: CAKI-1 renal
[53] = tested on: CCRF-CEM leukemia
[54] = tested on: OVCAR-3 ovarian
[55] = tested on: HOP-92 NSCLC
[56] = tested on: SNB-78 CNS
[57] = tested on: HCT-116 colon
[58] = tested on: A498 renal

`NC(N)=NNC(=O)CCn1[nH]c(=O)c(Cl)c(Cl)c1=O` gave a TGI [1] of over 100 µM, a TGI [2] of over 100 µM and a TGI [3] of over 100 µM. The TGI [4] was over 100 µM, the TGI [5] was over 100 µM and the TGI [6] was over 100 µM. The TGI [7] was over 100 µM, the TGI [8] was over 100 µM and the TGI [9] was over 100 µM. It also gave a TGI [10] of over 100 µM, a TGI [11] of over 100 µM and a TGI [12] of over 100 µM. It also gave a TGI [13] of over 100 µM, a TGI [14] of over 100 µM and a TGI [15] of over 100 µM. For the same compound, the TGI [16] was over 100 µM, the TGI [17] was over 100 µM and the TGI [18] was over 100 µM. It also gave a TGI [19] of over 100 µM, a TGI [20] of over 100 µM and a TGI [21] of over 100 µM. The TGI [22] was over 100 µM, the TGI [23] was over 100 µM and the TGI [24] was over 100 µM. The TGI [25] was over 100 µM, the TGI [26] was over 100 µM and the TGI [27] was over 100 µM. The TGI [28] was over 100 µM, the TGI [29] was over 100 µM and the TGI [30] was over 100 µM. The TGI [31] was over 100 µM, the TGI [32] was over 100 µM and the TGI [33] was over 100 µM. The TGI [34] was over 100 µM, the TGI [35] was over 100 µM and the TGI [36] was over 100 µM. It also gave a TGI [37] of over 100 µM, a TGI [38] of over 100 µM and a TGI [39] of over 100 µM. The TGI [40] was over 100 µM, the TGI [41] was over 100 µM and the TGI [42] was over 100 µM. For the same compound, the TGI [43] was over 100 µM, the TGI [44] was over 100 µM and the TGI [45] was over 100 µM. The TGI [46] was over 100 µM, the TGI [47] was over 100 µM and the TGI [48] was over 100 µM. The TGI [49] was over 100 µM, the TGI [50] was over 100 µM and the TGI [51] was over 100 µM. The TGI [52] was over 100 µM, the TGI [53] was over 100 µM and the TGI [54] was over 100 µM.

In the case of `COC(=O)C1=C(C(=O)OC)C2(C3C(SC)=CC(C)(C)CC3S1)N(Cc1ccccc1)CCN2Cc1ccccc1` (centres undefined), the TGI [1] was over 100 µM, the TGI [2] was over 100 µM and the TGI [3] was over 100 µM. For the same compound, the TGI [4] was over 100 µM, the TGI [5] was over 100 µM and the TGI [6] was over 100 µM. For the same compound, the TGI [7] was over 100 µM, the TGI [8] was over 100 µM and the TGI [9] was over 100 µM. For the same compound, the TGI [10] was over 100 µM, the TGI [11] was over 100 µM and the TGI [12] was over 100 µM. The TGI [13] was over 100 µM, the TGI [14] was over 100 µM and the TGI [15] was over 100 µM. For the same compound, the TGI [16] was over 100 µM, the TGI [17] was over 100 µM and the TGI [18] was over 100 µM. The TGI [19] was over 100 µM, the TGI [20] was over 100 µM and the TGI [21] was over 100 µM. It also gave a TGI [22] of over 100 µM, a TGI [23] of over 100 µM and a TGI [24] of over 100 µM. For the same compound, the TGI [25] was over 100 µM, the TGI [26] was over 100 µM and the TGI [27] was over 100 µM. The TGI [28] was over 100 µM, the TGI [29] was over 100 µM and the TGI [30] was over 100 µM. The TGI [31] was over 100 µM, the TGI [32] was over 100 µM and the TGI [33] was over 100 µM. The TGI [34] was over 100 µM, the TGI [35] was over 100 µM and the TGI [36] was over 100 µM. For the same compound, the TGI [37] was over 100 µM, the TGI [38] was over 100 µM and the TGI [55] was 16.1 µM. It also gave a TGI [39] of over 100 µM, a TGI [40] of over 100 µM and a TGI [41] of over 100 µM. The TGI [42] was over 100 µM, the TGI [44] was over 100 µM and the TGI [45] was over 100 µM. The TGI [56] was over 100 µM, the TGI [46] was over 100 µM and the TGI [47] was over 100 µM. For the same compound, the TGI [48] was over 100 µM, the TGI [49] was over 100 µM and the TGI [50] was over 100 µM. It also gave a TGI [52] of over 100 µM, a TGI [53] of over 100 µM and a TGI [54] of over 100 µM. It also gave a TGI [57] of over 100 µM.

`C[C@]12CC[C@H](OC3CCCCO3)CC1=CC[C@@H]1C2CC[C@]2(C)/C(=N/OCCC#N)CCC12` (some centres undefined) was tested, and the TGI [1] was over 100 µM, the TGI [58] was over 100 µM and the TGI [2] was over 100 µM. The TGI [4] was over 100 µM, the TGI [5] was over 100 µM and the TGI [6] was over 100 µM. The TGI [7] was 20.5 µM, the TGI [8] was 40.2 µM and the TGI [9] was over 100 µM. The TGI [10] was over 100 µM, the TGI [11] was over 100 µM and the TGI [13] was over 100 µM. It also gave a TGI [14] of over 100 µM, a TGI [15] of over 100 µM and a TGI [16] of over 100 µM. For the same compound, the TGI [17] was over 100 µM, the TGI [20] was over 100 µM and the TGI [21] was over 100 µM. For the same compound, the TGI [23] was over 100 µM, the TGI [24] was over 100 µM and the TGI [25] was over 100 µM. It also gave a TGI [26] of over 100 µM, a TGI [27] of over 100 µM and a TGI [28] of over 100 µM. The TGI [29] was 66.5 µM, the TGI [30] was 72.9 µM and the TGI [31] was 95.1 µM. The TGI [32] was over 100 µM, the TGI [33] was over 100 µM and the TGI [34] was over 100 µM. For the same compound, the TGI [35] was over 100 µM, the TGI [36] was 72.2 µM and the TGI [37] was over 100 µM. The TGI [38] was over 100 µM, the TGI [55] was 57.6 µM and the TGI [40] was 58.4 µM. For the same compound, the TGI [41] was over 100 µM, the TGI [42] was over 100 µM and the TGI [43] was over 100 µM. It also gave a TGI [44] of over 100 µM, a TGI [45] of over 100 µM and a TGI [56] of 72.1 µM. The TGI [46] was over 100 µM, the TGI [47] was over 100 µM and the TGI [48] was over 100 µM. It also gave a TGI [49] of over 100 µM, a TGI [50] of over 100 µM and a TGI [52] of over 100 µM. The TGI [54] was over 100 µM and the TGI [57] was over 100 µM.
